Results on 13 compounds are retold here after PubChem BioAssay (NCI).

Test systems include CAKI-1 renal; EKVX NSCLC; HOP-92 NSCLC; IGROV1 ovarian; MALME-3M melanoma; MDA-MB-231 breast; NCI-H460 lung; SF-539 CNS; SK-MEL-28 melanoma; SNB-75 CNS.
Experiment in all cases: NCI-60 cell line screen, 48 h

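Tested at 5 concentrations; 48 h exposure; 96-well plates; endpoints linearly interpolated, else capped at highest concentration. GI50 marks 50% less growth. Definition used: TGI = concentration required for complete inhibition of growth.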 A value given as a limit tells only on which side of the number the result lay.

For `COC(=O)c1cncc2c1CC1C3(C(=O)OC)C=NC(C4C(CO)=CCC43)C21C` (configuration not stated), the TGI in the assay on CAKI-1 renal, with EKVX NSCLC, with HOP-92 NSCLC, in the assay on IGROV1 ovarian, in the assay with MALME-3M melanoma and in the assay on MDA-MB-231 breast was greater than 100 µM in each case. Also, the TGI in the assay on NCI-H460 lung, with SF-539 CNS, in the assay on SK-MEL-28 melanoma and with SNB-75 CNS was greater than 100 µM each time.

As to `Cc1cc(S(=O)(=O)Nc2nnc3cc(C(F)(F)F)cc(C)n23)c(S)cc1Cl`, the TGI in the assay on CAKI-1 renal, in the assay with EKVX NSCLC, in the assay with HOP-92 NSCLC, with IGROV1 ovarian, in the assay on MALME-3M melanoma and with MDA-MB-231 breast was greater than 100 µM in each case. For the same compound, the TGI in the assay on NCI-H460 lung is 42.5 µM; in the assay on SF-539 CNS, greater than 96.6 µM; with SK-MEL-28 melanoma it was greater than 100 µM; in the assay on SNB-75 CNS, greater than 100 µM.

For the compound `CN1CC(c2ccccc2)N(CCCCN2CC(c3ccccc3)N(C)CC2c2ccccc2)CC1c1ccccc1` (configuration not stated), the TGI with CAKI-1 renal is greater than 100 µM; in the assay on EKVX NSCLC, greater than 100 µM; in the assay on HOP-92 NSCLC, greater than 100 µM; with IGROV1 ovarian, greater than 100 µM; with MALME-3M melanoma it was 81.8 µM; in the assay with MDA-MB-231 breast, greater than 100 µM. The TGI in the assay on NCI-H460 lung, with SF-539 CNS, with SK-MEL-28 melanoma and with SNB-75 CNS was greater than 100 µM in each case.

For the compound `CCCCCCCCCCCCCCCCCCOCC(O)COP(=O)(O)OCC1OC(n2cc(F)c(=O)[nH]c2=O)CC1O` (configuration not stated), the TGI with CAKI-1 renal is 26.8 µM; in the assay with EKVX NSCLC it was greater than 74.2 µM; with HOP-92 NSCLC, 24.2 µM; in the assay with IGROV1 ovarian, 26.8 µM; in the assay with MALME-3M melanoma it was 33.9 µM; in the assay with MDA-MB-231 breast it was 36.1 µM. In addition, the TGI in the assay on NCI-H460 lung was determined as 21.1 µM; in the assay on SF-539 CNS, 12.4 µM; with SK-MEL-28 melanoma, 28.8 µM; in the assay on SNB-75 CNS it was 27.8 µM.

As to `N#CCc1nc(C#N)c(N)o1`, the TGI in the assay on CAKI-1 renal, with EKVX NSCLC, in the assay with HOP-92 NSCLC, in the assay on IGROV1 ovarian, in the assay on MALME-3M melanoma and in the assay with MDA-MB-231 breast was greater than 100 µM in each case. The TGI in the assay with NCI-H460 lung, in the assay with SF-539 CNS, in the assay on SK-MEL-28 melanoma and in the assay with SNB-75 CNS was greater than 100 µM in each case. The GI50 in the assay with EKVX NSCLC and in the assay with SNB-75 CNS was greater than 100 µM each time.

As for `NC(=O)CC(Nc1ncc2c(n1)-c1ccccc1OC2)C(=O)O` (configuration not stated), the TGI in the assay on CAKI-1 renal, in the assay with EKVX NSCLC, in the assay with HOP-92 NSCLC, with IGROV1 ovarian, in the assay on MALME-3M melanoma and in the assay on MDA-MB-231 breast was greater than 100 µM throughout. Further, the TGI in the assay with NCI-H460 lung, in the assay with SF-539 CNS, in the assay on SK-MEL-28 melanoma and in the assay with SNB-75 CNS was greater than 100 µM throughout.

Turning to `CC(C)(C)N1Cc2ccccc2/C(=C/Sc2ccccc2)C1=O`, the TGI in the assay on CAKI-1 renal was 30.7 µM; in the assay on EKVX NSCLC it was 34.2 µM; in the assay on HOP-92 NSCLC, 27.8 µM; with IGROV1 ovarian, 24 µM; in the assay on MALME-3M melanoma, 28.7 µM; with MDA-MB-231 breast, 33.9 µM. Further, the TGI turned out to be 30 µM in the assay on NCI-H460 lung, 24.3 µM in the assay on SF-539 CNS, 33.7 µM in the assay on SK-MEL-28 melanoma and 31.9 µM in the assay with SNB-75 CNS.

Consider `CCCCSc1n/c(=C\c2ccc(N(C)C)cc2)c2nnnn12`, for which the TGI with CAKI-1 renal, in the assay with EKVX NSCLC, in the assay on HOP-92 NSCLC, in the assay on IGROV1 ovarian, in the assay on MALME-3M melanoma and in the assay on MDA-MB-231 breast was greater than 100 µM in each case. In addition, the TGI with NCI-H460 lung, in the assay with SF-539 CNS, with SK-MEL-28 melanoma and in the assay on SNB-75 CNS was greater than 100 µM throughout.

For `CC[N+](C)(CC)CCN1C(=O)c2ccccc2S1(=O)=O`, the TGI with CAKI-1 renal, in the assay on EKVX NSCLC, in the assay on HOP-92 NSCLC, with IGROV1 ovarian, with MALME-3M melanoma and in the assay on MDA-MB-231 breast was greater than 100 µM each time. In addition, the TGI in the assay with NCI-H460 lung, in the assay on SF-539 CNS, with SK-MEL-28 melanoma and with SNB-75 CNS was greater than 100 µM each time.

On to `N#CC1=CNc2sccc2S1(=O)=O`, for which the TGI in the assay on CAKI-1 renal, with EKVX NSCLC, in the assay with HOP-92 NSCLC, in the assay on IGROV1 ovarian, in the assay with MALME-3M melanoma and with MDA-MB-231 breast was greater than 100 µM in each case. Further, the TGI in the assay on NCI-H460 lung, with SF-539 CNS, in the assay on SK-MEL-28 melanoma and with SNB-75 CNS was greater than 100 µM each time.

On to `CSCCC(NC(=O)OC(C)(C)C)C(=O)NCCNc1ccc(NCCNC(=O)C(CCSC)NC(=O)OC(C)(C)C)c2c1C(=O)c1ccccc1C2=O` (configuration not stated), for which the TGI was greater than 41.5 µM in the assay on CAKI-1 renal; greater than 27.7 µM in the assay on EKVX NSCLC; 10.1 µM with HOP-92 NSCLC; 9.85 µM with IGROV1 ovarian; 9.35 µM with MALME-3M melanoma; 8.54 µM in the assay on MDA-MB-231 breast. Further, the TGI with NCI-H460 lung was determined as 23.1 µM; with SF-539 CNS, 6.96 µM; in the assay with SK-MEL-28 melanoma, 3.69 µM; with SNB-75 CNS it was 8.54 µM.

Take `CCN(CC)CCCNc1ccc2nnn3c4ccc(O)cc4c(=O)c1c23`: the TGI in the assay with CAKI-1 renal is 17 µM; in the assay with EKVX NSCLC, 29.8 µM; with HOP-92 NSCLC it was 43.8 µM; in the assay with IGROV1 ovarian, 19.4 µM; with MALME-3M melanoma, 26.4 µM; in the assay on MDA-MB-231 breast, 20.9 µM. For the same compound, the TGI was 9.13 µM in the assay with NCI-H460 lung, 22.8 µM in the assay on SF-539 CNS, 32 µM with SK-MEL-28 melanoma and 20.2 µM with SNB-75 CNS.

For the compound `O=C(Nc1cccc(-c2cn3ccccc3n2)c1)c1ccncc1`, the TGI in the assay with CAKI-1 renal was greater than 100 µM; in the assay on EKVX NSCLC, greater than 100 µM; in the assay on HOP-92 NSCLC, greater than 100 µM; in the assay with IGROV1 ovarian, greater than 100 µM; in the assay on MALME-3M melanoma, greater than 100 µM; in the assay with MDA-MB-231 breast, 98.7 µM. Also, the TGI is 39 µM in the assay on NCI-H460 lung, greater than 100 µM in the assay with SF-539 CNS, greater than 100 µM in the assay on SK-MEL-28 melanoma and greater than 100 µM with SNB-75 CNS.
